Data reported in patent US10781224B2, “Bis(oxymethyl)phosphinic acid and biogenic metal salts thereof as regulators of plant growth and development” (priority 2016, dated 2020).
“And” between values parts separate entries of the source, which are not always exact repeats. Equal entries are not always repeated.

How the values were obtained:
[1] = system: winter wheat (Vershin variety); experiment: Winter wheat seed treatment with BHMPA salts: germinating power (length and mass of roots and sprouts); assay type: in vivo
How it was run: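 Seeds (50 per Petri dish on two layers of filter paper) soaked 1 h in BHMPA or its Ca, Mg, Na, Co, Mn, Cu or Zn salts at 1·10^−6-1·10^−12%, with water controls. Germination energy read on day 4, germination on day 8 (wheat) or day 7 (rice, corn), as % means of four replicates. Germinating power taken as root and sprout length plus wet and dry mass per 100 seedlings.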

[2] = system: corn (Krasnodar 385 MV variety); experiment: Corn seed treatment with BHMPA salts: germination energy and germination rate; assay type: in vivo
How it was run: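 Corn, winter wheat and rice seeds (50 per dish, on filter paper) were soaked for 1 h in BHMPA or its metal salts at 1·10^−6-1·10^−12%, with water as control. Germination energy was read on day 4 and germination rate on day 8 for wheat and day 7 for rice and corn, following GOST 12038-84, as the mean of four replicates.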

[3] = comparative study, 1·10^−9% solution
[4] = comparative study vs Melaphen, 1·10^−8% solution

Copper BHMPA Salt [Cu-salt] was tested, and the “effectiveness on germinating power” value ([1]; 1·10^−6% and 1·10^−12% solutions) was “weren't effective”, the Length, root ([1]; 1·10^−6% solution) was 4.6 cm and the “Length, root, + % to control” value ([1]; 1·10^−6% solution) was −4%. The Length, sprout ([1]; 1·10^−6% solution) was 3.8 cm, the “Length, sprout, + % to control” value ([1]; 1·10^−6% solution) was −5% and the Mass, dry, root ([1]; 1·10^−6% solution) was 0.41 g/100 plantlings. The “Mass, dry, root, + % to control” value ([1]; 1·10^−6% solution) was −2%, the Mass, dry, sprout ([1]; 1·10^−6% solution) was 0.35 g/100 plantlings and the “Mass, dry, sprout, + % to control” value ([1]; 1·10^−6% solution) was −5%. For the same substance, the Mass, wet, root ([1]; 1·10^−6% solution) was 2.61 g/100 plantlings, the “Mass, wet, root, + % to control” value ([1]; 1·10^−6% solution) was −7% and the Mass, wet, sprout ([1]; 1·10^−6% solution) was 2.70 g/100 plantlings. For the same substance, the “Mass, wet, sprout, + % to control” value ([1]; 1·10^−6% solution) was 1.5%, the Length, root ([1]; 1·10^−7% solution) was 4.9 cm and the “Length, root, + % to control” value ([1]; 1·10^−7% solution) was 2%. For the same substance, the Length, sprout ([1]; 1·10^−7% solution) was 4.0 cm, the “Length, sprout, + % to control” value ([1]; 1·10^−7% solution) was 0% and the Mass, dry, root ([1]; 1·10^−7% solution) was 0.44 g/100 plantlings. For the same substance, the “Mass, dry, root, + % to control” value ([1]; 1·10^−7% solution) was 2%, the Mass, dry, sprout ([1]; 1·10^−7% solution) was 0.40 g/100 plantlings and the “Mass, dry, sprout, + % to control” value ([1]; 1·10^−7% solution) was 8%. The Mass, wet, root ([1]; 1·10^−7% solution) was 3.35 g/100 plantlings, the “Mass, wet, root, + % to control” value ([1]; 1·10^−7% solution) was 19% and the Mass, wet, sprout ([1]; 1·10^−7% solution) was 3.05 g/100 plantlings. The “Mass, wet, sprout, + % to control” value ([1]; 1·10^−7% solution) was 15%, the Length, root ([1]; 1·10^−8% solution) was 5.1 cm and the “Length, root, + % to control” value ([1]; 1·10^−8% solution) was 6%. The Length, sprout ([1]; 1·10^−8% solution) was 4.1 cm, the “Length, sprout, + % to control” value ([1]; 1·10^−8% solution) was 2.5% and the Mass, dry, root ([1]; 1·10^−8% solution) was 0.47 g/100 plantlings. The “Mass, dry, root, + % to control” value ([1]; 1·10^−8% solution) was 9%, the Mass, dry, sprout ([1]; 1·10^−8% solution) was 0.46 g/100 plantlings and the “Mass, dry, sprout, + % to control” value ([1]; 1·10^−8% solution) was 24%. The Mass, wet, root ([1]; 1·10^−8% solution) was 3.68 g/100 plantlings, the “Mass, wet, root, + % to control” value ([1]; 1·10^−8% solution) was 31% and the Mass, wet, sprout ([1]; 1·10^−8% solution) was 3.22 g/100 plantlings. For the same substance, the “Mass, wet, sprout, + % to control” value ([1]; 1·10^−8% solution) was 21%, the Length, root ([1]; 1·10^−9% solution) was 5.6 cm and the “Length, root, + % to control” value ([1]; 1·10^−9% solution) was 17%. For the same substance, the Length, sprout ([1]; 1·10^−9% solution) was 4.7 cm, the “Length, sprout, + % to control” value ([1]; 1·10^−9% solution) was 17% and 17.5% and the Mass, dry, root ([1]; 1·10^−9% solution) was 0.60 g/100 plantlings. The “Mass, dry, root, + % to control” value ([1]; 1·10^−9% solution) was 39.5%, the Mass, dry, sprout ([1]; 1·10^−9% solution) was 0.50 g/100 plantlings and the “Mass, dry, sprout, + % to control” value ([1]; 1·10^−9% solution) was 35%. For the same substance, the Mass, wet, root ([1]; 1·10^−9% solution) was 4.13 g/100 plantlings, the “Mass, wet, root, + % to control” value ([1]; 1·10^−9% solution) was 47% and the Mass, wet, sprout ([1]; 1·10^−9% solution) was 3.61 g/100 plantlings. For the same substance, the “Mass, wet, sprout, + % to control” value ([1]; 1·10^−9% solution) was 36%, the Length, root ([1]; 1·10^−10% solution) was 5.3 cm and the “Length, root, + % to control” value ([1]; 1·10^−10% solution) was 10%. The Length, sprout ([1]; 1·10^−10% solution) was 4.4 cm, the “Length, sprout, + % to control” value ([1]; 1·10^−10% solution) was 10% and the Mass, dry, root ([1]; 1·10^−10% solution) was 0.49 g/100 plantlings. The “Mass, dry, root, + % to control” value ([1]; 1·10^−10% solution) was 14%, the Mass, dry, sprout ([1]; 1·10^−10% solution) was 0.48 g/100 plantlings and the “Mass, dry, sprout, + % to control” value ([1]; 1·10^−10% solution) was 30%. For the same substance, the Mass, wet, root ([1]; 1·10^−10% solution) was 3.75 g/100 plantlings, the “Mass, wet, root, + % to control” value ([1]; 1·10^−10% solution) was 33.5% and the Mass, wet, sprout ([1]; 1·10^−10% solution) was 3.34 g/100 plantlings. The “Mass, wet, sprout, + % to control” value ([1]; 1·10^−10% solution) was 25.5%, the Length, root ([1]; 1·10^−11% solution) was 5.1 cm and the “Length, root, + % to control” value ([1]; 1·10^−11% solution) was 6%. The Length, sprout ([1]; 1·10^−11% solution) was 4.1 cm, the “Length, sprout, + % to control” value ([1]; 1·10^−11% solution) was 2.5% and the Mass, dry, root ([1]; 1·10^−11% solution) was 0.46 g/100 plantlings. For the same substance, the “Mass, dry, root, + % to control” value ([1]; 1·10^−11% solution) was 7%, the Mass, dry, sprout ([1]; 1·10^−11% solution) was 0.46 g/100 plantlings and the “Mass, dry, sprout, + % to control” value ([1]; 1·10^−11% solution) was 24%. The Mass, wet, root ([1]; 1·10^−11% solution) was 3.44 g/100 plantlings, the “Mass, wet, root, + % to control” value ([1]; 1·10^−11% solution) was 11% and the Mass, wet, sprout ([1]; 1·10^−11% solution) was 3.20 g/100 plantlings. For the same substance, the “Mass, wet, sprout, + % to control” value ([1]; 1·10^−11% solution) was 20%, the Length, root ([1]; 1·10^−12% solution) was 4.8 cm and the “Length, root, + % to control” value ([1]; 1·10^−12% solution) was 0%. For the same substance, the Length, sprout ([1]; 1·10^−12% solution) was 4.0 cm, the “Length, sprout, + % to control” value ([1]; 1·10^−12% solution) was 0% and the Mass, dry, root ([1]; 1·10^−12% solution) was 0.41 g/100 plantlings. The “Mass, dry, root, + % to control” value ([1]; 1·10^−12% solution) was −2%, the Mass, dry, sprout ([1]; 1·10^−12% solution) was 0.42 g/100 plantlings and the “Mass, dry, sprout, + % to control” value ([1]; 1·10^−12% solution) was 13.5%. The Mass, wet, root ([1]; 1·10^−12% solution) was 3.01 g/100 plantlings, the “Mass, wet, root, + % to control” value ([1]; 1·10^−12% solution) was 7% and the Mass, wet, sprout ([1]; 1·10^−12% solution) was 2.92 g/100 plantlings. The “Mass, wet, sprout, + % to control” value ([1]; 1·10^−12% solution) was 10%, the Length, root [1, 3] was 10.9 cm and the “Length, root, + % to control” value [1, 3] was 25%. The Length, sprout [1, 3] was 7.2 cm, the “Length, sprout, + % to control” value [1, 3] was 16% and the Mass, dry, root [1, 3] was 0.67 g/100 plantlings. The “Mass, dry, root, + % to control” value [1, 3] was 8%, the Mass, dry, sprout [1, 3] was 0.59 g/100 plantlings and the “Mass, dry, sprout, + % to control” value [1, 3] was 16%. The Mass, wet, root [1, 3] was 5.45 g/100 plantlings, the “Mass, wet, root, + % to control” value [1, 3] was 51% and the Mass, wet, sprout [1, 3] was 5.00 g/100 plantlings. For the same substance, the “Mass, wet, sprout, + % to control” value [1, 3] was 26%, the Germination energy ([2]; 1·10^−6% solution) was 80.0% and the Germination rate ([2]; 1·10^−6% solution) was 82.5%. It also gave a Germination energy ([2]; 1·10^−7% solution) of 82.3%, a Germination rate ([2]; 1·10^−7% solution) of 85.0% and a Germination energy ([2]; 1·10^−8% solution) of 91.8%. For the same substance, the Germination rate ([2]; 1·10^−8% solution) was 94.2%, the Germination energy ([2]; 1·10^−9% solution) was 90.0% and the Germination rate ([2]; 1·10^−9% solution) was 92.3%. It also gave a Germination energy ([2]; 1·10^−10% solution) of 85.8%, a Germination rate ([2]; 1·10^−10% solution) of 88.3% and a Germination energy ([2]; 1·10^−11% solution) of 82.3%. The Germination rate ([2]; 1·10^−11% solution) was 85.0%, the Germination energy ([2]; 1·10^−12% solution) was 78.8% and the Germination rate ([2]; 1·10^−12% solution) was 81.7%. It also gave a Germination energy [2, 4] of 87.7% and a Germination rate [2, 4] of 97.0%.
